In US20220132846A1, “1-PYRIDYL-PYRAZOLYL AMIDE COMPOUNDS AND PREPARATION AND USES THEREOF” (HUNAN RESEARCH INSTITUTE OF CHEMICAL INDUSTRY CO., LTD., priority 2019, published 2022):
Read-outs that look alike come from different tables or passages of the source.

Key:
Assay type in all cases: in vivo
[1] = test system: Diamondback moth (Plutella xylostella (Linnaeus)); experiment: Test against diamondback moth, leaf disc dip; conditions: second-instar larvae, after 72 hours
Method: (§1) The test compound was dissolved in an appropriate solvent such as N,N-dimethylformamide, and then diluted with 0.2% aqueous solution of Tween 80 to the desired concentration, Those without the test compounds were set as blank controls, the treatments were replicated 3 times. The cabbage leaves were perforated to get 18 mm diameter leaf discs by a hole puncher, 5 leaf discs were dipped in the test solution for 10 seconds and then put into a Petri dish (diameter 90 mm) padded with moisturizing filter paper, after air-drying, the leaf discs were infested with no less than ten second-instar larvae of test insects which were starved for 4 hours, and then the dish was covered and placed in a chamber for culture. After 72 hours, the number of dead insects was investigated, the mortality was calculated, and the regression equation, correlation coefficient (r) and the median lethal concentration (LC50) were obtained using Probit analysis method.

[2] = test system: Armyworm (Mythimna separata (Walker)); experiment: Test against armyworm, Potter tower method; conditions: for mortality at 12.5 µg/mL / mortality at 50 µg/mL / mortality at 500 µg/mL: Mythimna separata, read-out: Activity (mortality) level against armyworm; for Activity against armyworm, further screening (in words): compared with chlorantraniliprole (D1)
Outline: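 Third-instar larvae, ten per dish on corn leaf fragments, were sprayed in a Potter tower with 1 mL of compound in DMF diluted in 0.2% Tween 80, in triplicate. Mortality was scored after 72 h and reported as mean mortality against a solvent blank.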

[3] = test system: Spodoptera litura (Fabricius); experiment: Test against Spodoptera litura, leaf disc dip; conditions: after 72 hours; for Activity against Spodoptera litura (in words): second-instar larvae
Method: as §1

Aphis fabae = experiment: Test against aphid, leaf dip method (Aphis fabae); conditions: foliar; for mortality at 12.5 µg/mL: 12.5 mg/L; for mortality at 12.5 µg/mL / mortality at 50 µg/mL / mortality at 200 µg/mL / mortality at 500 µg/mL: read-out: Activity (mortality) level against Aphis fabae; for mortality at 200 µg/mL: 200 mg/L
Outline: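 Horsebean seedlings carrying at least twenty 3-day-old Aphis fabae dipped 5 seconds in compound solutions (DMF, diluted in 0.2% aqueous Tween 80), three replicates with solvent blank. Live and dead insects counted after 24 hours.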

[4] = 12.5 mg/L, third-instar larvae, after 72 hours
[5] = 50 mg/L, third-instar larvae, after 72 hours
[6] = 500 mg/L, third-instar larvae, after 72 hours

CCN(CC)C(=O)c1cc(Cl)cc(Cl)c1N(C)C(=O)c1cc(Br)nn1-c1ncccc1Cl [Compound 15, N-[2,4-dichloro-6-[(diethylamino)carbonyl]phenyl]-N-methyl-1-(3-chloro-2-pyridinyl)-3-bromo-1H-pyrazole-5-carboxamide]
Activity against diamondback moth (in words) [1]: high activity at very low concentration | mortality at 12.5 µg/mL [2, 4]: 90 to 100% | mortality at 50 µg/mL [2, 5]: 90 to 100% | mortality at 500 µg/mL [2, 6]: 90 to 100% | Activity against armyworm, further screening (in words) [2]: excellent activity | Median lethal concentration LC50 against Spodoptera litura, compared with D1 ([3]; same conditions): lower than that of chlorantraniliprole (D1) | Activity against Spodoptera litura (in words) [3]: high activity at very low concentration | mortality at 12.5 µg/mL (Aphis fabae; after 24 hours): 90 to 100% | mortality at 50 µg/mL (Aphis fabae; 50 mg/L, after 24 hours): 90 to 100% | mortality at 200 µg/mL (Aphis fabae; after 24 hours): 90 to 100% | mortality at 500 µg/mL (Aphis fabae; 500 mg/L, after 24 hours): 90 to 100% | LC50 (Aphis fabae; further test, read-out: LC50 against Aphis fabae): < 1 µg/mL

CCN(C)C(=O)c1cc(Cl)cc(Br)c1N(C)C(=O)c1cc(Br)nn1-c1ncccc1Cl [Compound 32, N-[2-bromo-4-chloro-6-[(methyl(ethyl)amino)carbonyl]phenyl]-N-methyl-1-(3-chloro-2-pyridinyl)-3-bromo-1H-pyrazole-5-carboxamide]
Activity against diamondback moth (in words) [1]: high activity at very low concentration | mortality at 12.5 µg/mL [2, 4]: 90 to 100% | mortality at 50 µg/mL [2, 5]: 90 to 100% | mortality at 500 µg/mL [2, 6]: 90 to 100% | Activity against armyworm, further screening (in words) [2]: excellent activity | Activity against Spodoptera litura (in words) [3]: high activity at very low concentration | mortality at 12.5 µg/mL (Aphis fabae; after 24 hours): 90 to 100% | mortality at 50 µg/mL (Aphis fabae; 50 mg/L, after 24 hours): 90 to 100% | mortality at 200 µg/mL (Aphis fabae; after 24 hours): 90 to 100% | mortality at 500 µg/mL (Aphis fabae; 500 mg/L, after 24 hours): 90 to 100%

CNC(=O)c1cc(Cl)cc(C)c1NC(=O)c1cc(Br)nn1-c1ncccc1Cl [Compound D1, chlorantraniliprole, reference compound]
Activity against diamondback moth (in words) [1]: high activity at very low concentration | Activity against armyworm ([2]; 1.25 mg/L): less than 50% | mortality at 12.5 µg/mL ([2]; 72 h): 90 to 100% | mortality at 50 µg/mL ([2]; 72 h): 90 to 100% | mortality at 500 µg/mL ([2]; 72 h): 90 to 100% | Activity against Spodoptera litura (in words) [3]: high activity at very low concentration | mortality at 50 µg/mL (Aphis fabae; 24 h): 0 to 50% | mortality at 500 µg/mL (Aphis fabae; 24 h): 90 to 100%
